Data reported in US20250304973A1, “HIGH-AFFINITY THROMBIN APTAMERS AND METHODS OF USE” (Ayass Bioscience LLC, priority 2024, published 2025).
Entries after “also recorded” stand apart in the source; their conditions may differ.

Experiments:
[1] = molecular target: T1, human alpha-thrombin protein (Homo sapiens, UniProt P00734); assay: ELISA-based binding assay of biotinylated thrombin aptamers to thrombin protein; conditions: for Kd: ELISA-based competition assay, 5′ biotin aptamer with or without 100-fold excess non-biotinylated aptamer, estimated, read-out: binding affinity to thrombin, dissociation constant (Kd); for binding to immobilized human thrombin (absorbance at 450 nm): top nine enriched aptamers, biotinylated, FIG. 2A
T1 construct: Native human alpha-thrombin protein; purchased ThermoFisher Scientific RP-43100; host or cells: native protein
Protocol: 135. Native human alpha-thrombin protein (ThermoFisher Scientific, cat #RP-43100, Waltham, MA, USA) was added to each well of a 96-well plate (Nunc MaxiSorp flat-bottom 96-well plates, ThermoFisher Scientific, cat #44-2404-21, Waltham, MA, USA) at a concentration of 250 nM in Tris-buffered saline with a volume of 100 μL per well. The plate was then incubated at 4° C. for 16 h to allow the wells to become coated with thrombin. After removing the thrombin solution, the wells were washed and blocked using blocking buffer (20 mM Tris, 150 mM NaCl pH 7.5, 2% BSA, 0.1% Tween 20 and 100 μg/mL of sheared salmon sperm DNA) for a 1 h duration. Next, biotinylated aptamers at the indicated concentrations in a volume of 100 μL were added to the wells in an incubation buffer (20 mM Tris, 150 mM NaCl pH 7.5, 0.1% BSA, 0.1% Tween 20 and 100 μg/mL of sheared salmon sperm DNA) and incubated for 1 h at room temperature. In the competition binding assay, unlabeled aptamers were added along with the biotinylated aptamers, with the unlabeled aptamers being present in a 100-fold excess compared to the biotinylated aptamers. Following three washing steps with wash buffer (20 mM Tris, 150 mM NaCl pH 7.5, 0.1% BSA and 0.1% Tween 20), streptavidin-HRP (ThermoFisher Scientific, cat #21130, Waltham, MA, USA) was added at a dilution of 1:5000 in the incubation buffer. The plate was washed again three times to remove any unbound reagents. The bound biotinylated aptamers were then detected using 3,3′,5,5′-Tetramethylbenzidine (TMB) substrate (ThermoFisher Scientific, cat #34021, Waltham, MA, USA) following the manufacturer's instructions.

human citrated plasma [2] = assay: Activated partial thromboplastin time (APTT) assay in human citrated plasma; assay type: biochemical; conditions: 2 uM, 2 h, versus untreated control
Protocol: (§1) 137. Sterile human blood in sodium citrate was purchased from the Rockland Immuno- chemicals, Inc (cat #R214-0050, Pottstown, PA 19464, USA). Plasma was prepared by centrifugation for 10 min at 2000×g. In vitro activity assays were performed on ACLTOP analyzer manufactured by Instrumentation Laboratory, which is a type of coagulation analyzer commonly used in clinical laboratories to measure clotting times and assess coagulation parameters. The ACLTOP analyzer is designed to perform a wide range of coagulation tests, including Factor II activity, prothrombin time (PT), activated partial thromboplastin time (APTT), fibrinogen, and other related assays. ACLTOP analyzer uses HemosIL reagents developed by Instrumentation Laboratory company (Bedford, MA, USA) to perform coagulation tests.
140. […] APTT time was measured using the synthetic phospholipid reagent SynthASIil for quantitative determination in human citrated plasma on an ACLTOP coagulation analyzer manufactured by Instrumentation Laboratory (Bed- ford, MA, USA).
(§2) 146. Modified aptamers chemically crosslinked with TAG, PEG, and cholesterol entities at the 3′ end, were purchased from IDT (Integrated DNA Technologies, Coralville, IA, USA). The impact of modified AYA1809002 and AYA1809004 aptamers on Factor II activity, PT, and APTT was evaluated using the same protocol as was used for the unmodified aptamers. Additionally, the potential for reversal was investigated using the respective reverse complement for each aptamer.

[3] = test system: Salmonella typhimurium strains TA98, TA100, TA1535, TA1537 and Escherichia coli strains wp2 [pKM101] and wp2 uvrA; assay: Ames test (Xenometrix Ames MPF PENTA I); assay type: cell-based; conditions: 0.5 uM to 10 uM; with and without S9
Protocol: 148. The mutagenic potential of AYA1809002 and AYA1809004 was evaluated using the Ames test with the Xenometrix Ames MPF PENTA I kit, including S9 and Positive Controls (Aniara Diagnostica, code: ACO1-512-S2-P; manufacturer's part number: C01-512-S2-P, West Chester Township, OH).
165. To assess the mutagenicity of the aptamers, we performed Ames test, a widely used assay for evaluating the mutagenicity of chemical compounds. The Ames test is a bac-terial reverse mutation assay that detects the ability of a substance to induce mutations in the DNA of certain strains of bacteria. It utilizes various bacterial strains, including Salmonella typhimurium strains TA98, TA100, TA1535, and TA1537, as well as the Escherichia coli strains wp2 [pKM101]and wp2 uvrA. To evaluate the mutagenic potential of an aptamer, amino acid-requiring bacterial organisms are exposed to different concentrations of the aptamer and mutagenic events are assessed by selecting for reversion events. In this context, the aptamers AYA1809002 and AYA1809004 were supplemented at increasing concentrations ranging from 0.5 uM to 10 uM.

human citrated plasma [4] = assay: Prothrombin time (PT) assay in human citrated plasma; assay type: biochemical; conditions: 2 uM, 2 h, versus untreated control
Protocol: as §1, with “Plasma” for “137. Sterile human blood in sodium citrate was purchased from the Rockland Immuno- chemicals, Inc (cat #R214-0050, Pottstown, PA 19464, USA). Plasma”
PT time was measured using RecombiPlasTin 2G for quantitative determination in human citrated plasma of PT and Fibrinogen on an ACLTOP coagulation analyzer manufactured by Instrumentation Laboratory (Bedford, MA, USA). To assess the activity of the aptamers in a dose-dependent manner in whole blood, human blood samples were collected in citrate-treated tubes. The blood samples were then incubated at room temperature for 2 h in the absence or presence of varying concentrations of the thrombin aptamers. To measure the Prothrombin Time (PT) on the ACLTOP coagulation analyzer, plasma was obtained by centrifuging the samples at 1500×g for 10 min at 4° C. For the dose dependence study, concentrations of 1 uM, 2 uM, 3 uM, and 4 uM of AYA1809002 and AYA1809004 were utilized.
as §2, with “Modified” for “146. Modified”

AYA1809002: ssDNA thrombin aptamer GCGGTGTTGCTGGGGTTGGGAGGTTGGAGGAAGCAATCGC
Kd [1]: 10 nM
binding to immobilized human thrombin (absorbance at 450 nm) [1]: strong binding capabilities
increase in APTT time (human citrated plasma [2]): approximate four-fold increase
mutagenicity (revertants) [3]: do not exhibit mutagenic properties; also recorded: did not exhibit mutagenic properties
increase in PT time (human citrated plasma [4]): three-fold increases

AYA1809004: ssDNA thrombin aptamer TCGTCAAGGTACGGTTGGGGGGGTGGGTGTTGACGTTGAA (DNA, backbone not given here)
Kd [1]: 13 nM
binding to immobilized human thrombin (absorbance at 450 nm) [1]: strong binding capabilities
increase in APTT time (human citrated plasma [2]): approximate four-fold increase
mutagenicity (revertants) [3]: do not exhibit mutagenic properties
increase in PT time (human citrated plasma [4]): three-fold increases
